Experimental data reported in paper PMC9607159, “High-Resolution Bioassay Profiling with Complemented Sensitivity and Resolution for Pancreatic Lipase Inhibitor Screening” (Molecules, 2022).
Like-named read-outs stand apart in the source and are kept apart here.

Target: T1, pancreatic lipase (PL) (Sus scrofa, UniProt P00591)
T1 construct: gene PNLIP
T1 sequence (P00591 1-450): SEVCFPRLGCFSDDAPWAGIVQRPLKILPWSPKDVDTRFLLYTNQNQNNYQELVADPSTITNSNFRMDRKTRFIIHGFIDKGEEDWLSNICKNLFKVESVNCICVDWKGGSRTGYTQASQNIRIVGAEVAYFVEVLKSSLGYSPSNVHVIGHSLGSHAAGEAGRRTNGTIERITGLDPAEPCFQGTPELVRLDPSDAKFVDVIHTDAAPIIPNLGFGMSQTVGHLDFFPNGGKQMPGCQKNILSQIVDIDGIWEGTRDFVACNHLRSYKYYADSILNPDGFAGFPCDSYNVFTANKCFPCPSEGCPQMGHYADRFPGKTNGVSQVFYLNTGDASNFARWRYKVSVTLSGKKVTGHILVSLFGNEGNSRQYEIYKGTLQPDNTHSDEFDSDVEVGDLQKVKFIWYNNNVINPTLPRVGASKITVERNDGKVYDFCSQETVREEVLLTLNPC
Assay: fluorogenic 4-MUO lipase assay dose-response; also nanofractionation bioassay profiling and ligand fishing with PL magnetic beads
Type: biochemical

## O=c1cc(-c2ccc(O)c(O)c2)oc2cc(O)cc(O)c12 [luteolin]
  IC50: 30.6 µM

## O=C(O[C@@H]1Cc2c(O)cc(O)cc2O[C@@H]1c1cc(O)c(O)c(O)c1)c1cc(O)c(O)c(O)c1 [(-)-Epigallocatechin gallate]
read-out: IC50
  IC50: 0.97 µM
